Measured values published in patent publication US20130288990A1, “CONTROLLING PESTS BY COMBINING INSECTICIDES AND TRANSGENIC PLANTS BY APPLYING DIRECTLY TO LEAVES AND ROOTS” (priority 2007, published 2013).

Assays:
Type in all cases: in vivo
Spodoptera frugiperda [1] = test: Spodoptera frugiperda test (leaf application), transgenic cotton
Description: (§1) A synergistic effect in insecticides and acaricides is always present when the effect of the present invention's combinations is greater than the expected effect, which for a given combination can be calculated after S. R. Colby, Weeds 15 (1967), 20-22 as follows:
(§2) when • X is the kill rate expressed in % of the untreated control on using active compound A at an application rate of m g/ha or in a concentration of m ppm, • Y is the kill rate expressed in % of the untreated control on using active compound B at an application rate of n g/ha or in a concentration of n ppm and • Z is the kill rate expressed in % of the untreated control on using active compound C at an application rate of r g/ha or in a concentration of r ppm, • E is the efficacy on using active compounds A and B and C in application rates of m and n and r g/ha then
(§3) If the actual kill rate is greater than calculated, then the killing effect of the combination is superadditive, i.e., a synergistic effect is present. In this case, the actually observed kill rate has to be greater than that calculated from the above-recited formula for the expected kill rate (E).
Individually potted transgenic cotton plants with Lepidoptera resistance and herbicide resistance (line DP444 BG/RR) are treated with the desired product against the army worm (Spodoptera frugiperda)
(§4) After the desired time, the kill in % is determined 100% means that all the caterpillars were killed; 0% means that no caterpillars were killed.

Spodoptera exigua = Spodoptera exigua test (leaf application), transgenic maize
Description: as §1, §2, §3
Pots each holding 5 transgenic maize plants with Lepidoptera, Coleoptera and/or herbicide resistance are treated in 2 replications against the small mottled willow (Spodoptera exigua).
as §4

Spodoptera frugiperda [2] = test: Spodoptera frugiperda test (leaf application), transgenic maize
Description: as §1, §2, §3
Pots each holding 5 transgenic maize plants with Lepidoptera, Coleoptera and/or herbicide resistance are treated in 2 replications against the army worm (Spodoptera frugiperda).
as §4

Spodoptera frugiperda [3] = test: Spodoptera frugiperda test (drench application), transgenic maize
Description: as §1, §2, §3
The earth of the pots each with 5 transgenic maize plants with Lepidoptera, Coleoptera and/or herbicide resistance is drenched with the desired product. Then, the plants are infected with larvae of the army worm (Spodoptera frugiperda).
as §4

Aphis gossypii = Aphis gossypii test (leaf application), transgenic cotton
Description: as §1, §2
as §3, with “(E). […]” for “(E).”
After the desired time, the kill in % is determined 100% means that all the aphids were killed; 0% means that no aphids were killed.

Heliothis armigera = Heliothis armigera test (leaf application), transgenic cotton
Description: as §1, §2, §3
Individually potted transgenic cotton plants with Lepidoptera resistance and herbicide resistance (line DP444 BG/RR) are treated with the desired product against the cotton ball worm (Heliothis armigera).
as §4

O=[N+]([O-])NC1=NCCN1Cc1ccc(Cl)nc1 [Imidacloprid]
Kill in % after 6 d (Spodoptera frugiperda [1]; 4 ppm): 10%
Kill in % after 1 d (Spodoptera exigua; 4 ppm): 0%
Kill in % after 1 d (Spodoptera frugiperda [2]; 4 ppm): 0%
Kill in % after 3 d (Spodoptera frugiperda [3]; 4 ppm): 0%

CNC(=O)c1cc(Cl)cc(C)c1NC(=O)c1cc(Br)nn1-c1ncccc1Cl [(I-1)]
Kill in % after 4 d (Aphis gossypii; 0.16 ppm): 0%
Kill in % after 4 d (Heliothis armigera; 0.032 ppm): 50%
Kill in % after 4 d (Spodoptera frugiperda [1]; 0.032 ppm): 70%
Kill in % after 6 d (Spodoptera frugiperda [1]; 0.032 ppm): 15%
Kill in % after 4 d (Spodoptera exigua; 0.032 ppm): 0%
Kill in % after 1 d (Spodoptera exigua; 0.16 ppm): 0%
Kill in % after 4 d (Spodoptera exigua; 0.16 ppm): 0%
Kill in % after 4 d (Spodoptera frugiperda [2]; 0.0064 ppm): 0%
Kill in % after 1 d (Spodoptera frugiperda [2]; 0.16 ppm): 0%
Kill in % after 4 d (Spodoptera frugiperda [3]; 4 ppm): 0%
Kill in % after 1 d (Spodoptera frugiperda [3]; 20 ppm): 30%
Kill in % after 3 d (Spodoptera frugiperda [3]; 20 ppm): 45%
Kill in % after 4 d (Spodoptera frugiperda [3]; 20 ppm): 50%

Abamectin
Kill in % after 4 d (Heliothis armigera; 0.16 ppm): 30%
Kill in % after 4 d (Spodoptera exigua; 0.16 ppm): 35%
Kill in % after 1 d (Spodoptera frugiperda [2]; 0.16 ppm): 10%
Kill in % after 1 d (Spodoptera frugiperda [3]; 4 ppm): 0%
Kill in % after 4 d (Spodoptera frugiperda [3]; 4 ppm): 0%

CN/C(=N\[N+](=O)[O-])NCc1cnc(Cl)s1 [Clothianidin]
Kill in % after 4 d (Heliothis armigera; 0.16 ppm): 0%
Kill in % after 4 d (Spodoptera frugiperda [1]; 0.16 ppm): 0%
Kill in % after 1 d (Spodoptera exigua; 4 ppm): 0%
Kill in % after 4 d (Spodoptera frugiperda [3]; 4 ppm): 10%

N#Cc1nn(-c2c(Cl)cc(C(F)(F)F)cc2Cl)c(N)c1[S+]([O-])C(F)(F)F (stereo not drawn) [Fipronil]
Kill in % after 4 d (Aphis gossypii; 4 ppm): 25%
Kill in % after 4 d (Spodoptera exigua; 4 ppm): 0%
Kill in % after 4 d (Spodoptera frugiperda [3]; 20 ppm): 0%

Spinosad
Kill in % after 4 d (Heliothis armigera; 0.16 ppm): 20%
Kill in % after 4 d (Spodoptera exigua; 0.16 ppm): 20%
Kill in % after 4 d (Spodoptera frugiperda [2]; 0.16 ppm): 0%
Kill in % after 4 d (Spodoptera frugiperda [3]; 4 ppm): 0%
